Laboratory results published in US12458647B2, “Macrocyclic derivative and use thereof” (Guangzhou Joyo Pharmatech Co., Ltd., priority 2022, dated 2025).

How the values were obtained:
[1] = Pharmacokinetic study in Beagle dogs; assay type: in vivo; conditions: male Beagle dogs; for AUC0-last / Cl / T1/2 / Vd / Cmax / TMax: whole blood
Experimental: To evaluate the pharmacokinetic behavior of the compounds of the present disclosure in male Beagle dogs.
The compounds to be tested were dissolved in the vehicle (5% DMSO/10% solutol/85% water). Four male beagle dogs were divided into 2 groups of 2. Group 1 animals were administered a single intravenous bolus injection (i.v.) of the compounds at a dose of 1 mg/kg. Group 2 animals were administered a single dose of the compounds by gavage (p.o.) at a dose of 5 mg/kg. Whole blood samples were collected at 0.083 (intravenous bolus group only), 0.25, 0.5, 1, 2, 4, 8 and 24 hours after dosing. The LC-MS/MS method was used to determine the concentration of the test compound in whole blood samples.

[2] = system: AsPC-1 cells; assay: In vitro cell proliferation experiment (5 days), AsPC-1; assay type: cell-based; conditions: AsPC-1, 5 days; read-out: Inhibitory Activity IC50
Experimental: (§1) RPMI 1640 medium, DMEM, Ham's F12 medium, F12K medium, IMDM and penicillin/streptomycin antibiotics were purchased from Gibco, fetal bovine serum was purchased from Hyclone, Envision multilabel plate reader (PerkinElmer). […]
(§2) The test compound was diluted by 5-fold to 8 concentrations with a pipette, i.e., from 2 mM to 25.6 nM, and replicate wells were set up for the experiment. […] Another cell plate was prepared, and the signal value was read as the maximum value (the maximum value in the following equation) on the day of dosing for data analysis.
(§3) 50 μL of cell viability chemiluminescent detection reagent was added to the cell plate and incubated at room temperature for 30 minutes to stabilize the luminescence signal. A multilabel plate reader was used for reading. […]

[3] = system: LOVO cells; assay: In vitro cell proliferation experiment (5 days), LOVO; assay type: cell-based; conditions: read-out: Inhibitory Activity IC50
Experimental: as §1, §2, §3

[4] = system: PSN-1 cell line; assay: In vitro cell proliferation experiment (5 days), PSN-1; assay type: cell-based; conditions: PSN-1, 5 days; read-out: Inhibitory Activity IC50
Experimental: as §1, §2, §3

[5] = system: NCI—H441 cells; assay: In vitro cell proliferation experiment (5 days), H441; assay type: cell-based; conditions: H441, 5 days; read-out: Inhibitory Activity IC50
Experimental: as §1, §2, §3

[6] = system: PK-59 cell line; assay: In vitro cell proliferation experiment (5 days), PK-59; assay type: cell-based; conditions: PK-59, 5 days; read-out: Inhibitory Activity IC50
Experimental: as §1, §2, §3

[7] = system: NCI—H727 cells; assay: In vitro cell proliferation experiment (5 days), H727; assay type: cell-based; conditions: H727, 5 days; read-out: Inhibitory Activity IC50
Experimental: as §1, §2, §3

[8] = system: LU99 cell line; assay: In vitro cell proliferation experiment (5 days), LU99; assay type: cell-based; conditions: LU99, 5 days; read-out: Inhibitory Activity IC50
Experimental: as §1, §2, §3

| AUC0-last ([1]; i.v. 1 mg/kg) [µM·h] | Cl ([1]; i.v. 1 mg/kg) [mL/min/kg] | T1/2 ([1]; i.v. 1 mg/kg) [h] | Vd ([1]; i.v. 1 mg/kg) [L/kg] | F(%) ([1]; p.o. 5 mg/kg) | AUC0-last ([1]; p.o. 5 mg/kg) [µM·h] | Cmax ([1]; p.o. 5 mg/kg) [nM] | T1/2 ([1]; p.o. 5 mg/kg) [h] | TMax ([1]; p.o. 5 mg/kg) [h] | IC50 [2] [nM] | IC50 [3] [nM] | Structure (SMILES) | IC50 [4] [nM] | IC50 [5] [nM] | IC50 [6] [nM] | IC50 [7] [nM] | IC50 [8] [nM] |
| --- | --- | --- | --- | --- | --- | --- | --- | --- | --- | --- | --- | --- | --- | --- | --- | --- |
| 4.712 | 4.2 | 10.3 | 3.0 | 33.2 | 7.632 | 618 | 12.0 | 1.0 | 6.6 | 5.9 | CCn1c(-c2cc(N3CCN(C)CC3)cnc2C(C)OC)c2c3cc(ccc31)-c1csc(n1)CC(NC(=O)C1CC1C)C(=O)N1NC(C(=O)OCC(C)(C)C2)C2CC1C2 (single isomer, unassigned) [Compound 7A] | 10.5 |  |  |  |  |
| 7.91 | 1.9 | 24.5 | 3.8 | 22 | 8.72 | 472 | 22.4 | 1.5 | 2.1 | 2.8 | CCn1c(-c2cc(N3CCN(C)CC3)cnc2C(C)OC)c2c3cc(ccc31)-c1csc(n1)CC(NC(=O)C1C(C)C1C)C(=O)N1NC(C(=O)OCC(C)(C)C2)C2CC1C2 (single isomer, unassigned) [Compound 6A] | 5.3 | 1.4 | 2.3 | 0.4 | 8.7 |
